One molecule from patent publication US12508275B2, “Neomycin based compounds, and pharmaceutical use thereof” (UNIVERSITÉ COTE D'AZUR, priority 2019, dated 2025) can be followed below.

What all share (assay type): cell-based, human
For assay [1], the system named is GB5 cells. The assay can be described thus: TMZ assay: GSC sensitivity to Temozolomide (XTT). The conditions noted are these: three days. As for the experimental part:
FIG. 5: Sensitivity to TMZ was assessed by comparing the percentage of dead cells between TMZ treated GB5 and TMZ treated GB5 in combination with Compound 9a. GB5 cells have been treated with 400 uM TMZ alone or in combination with growing concentrations of Compounds 9a-b and 18b. The results are the meaning of at least two separate experiments.
IV—TMZ assay: TG6 and GB5 were seeded at 2000 cells/well in 96 wells plate in NS34+ or treated with medium containing 400 uM of TMZ alone or mixed with 10, 25 and 50 uM of Compounds 9a-b and 18a-b. Cultures were incubated 4 days and the cell viability has been evaluated by XTT assays and a count of living and dead cells with trypan blue staining.
Temozolomide is the chemotherapy of reference for GBM treatment. In order to assess whether the compounds might sensitize GSC to TMZ, TMZ (400 uM) pretreated GB5 cells were incubated with 10, 25 and 50 uM of Compounds 9a-b and 18b. Three days later the experiment is stop and the cells were subjected to an XTT assays. […] Cell toxicity was confirmed by trypan blue staining.

In assay [2] the test system is GB5 cells. The assay can be described thus: Mitosis: cells positive for histone H3 phosphorylated on ser-10, GB5. The conditions noted are these: GB5, H3-ser10 positive cells. As for the experimental part:
(§1) FIG. 2: Compounds 9a-b and 18a-b effect on stemness marker expression, clonal expansion and mitosis in GB5 cells. (A) NESTIN expression was assessed by immunofluorescence in GB5 treated with increasing amount of Compounds 9a-b and 18a. The number of NESTIN positive cells was counted for each treatment and express as percentage of the control (100%). The results are the meaning of at least two separate experiments. […] (C) Clonal expansion analysis was performed with GB5 cells as described in the material and method section. Two and three weeks later, the number of spheroids is counted and reported as percentage of the initial number of cells in the well. The results are the meaning of a minimum of two separate experiments. (D) The number of mitosis in the culture was determined by the detection of the number of cells positive for histone H3 phosphorylated on ser-10 (H3-ser10). H3-ser10 expression was assessed by immunofluorescence in GB5 treated with increasing amount of Compounds 9a-b and 18a. The number of positive cells was counted for each treatment and express as percentage of the control (100%). The results are the meaning of at least two separate experiments.
III—Immunofluorescence assay: TG6 and GB5 were seeded at 2000 cells/well in 24 wells plate in NS34+ alone or containing 5, 7.5, 10, 12.5, 15, 20 and 25 uM of Compounds 9a-b and 18a-b. Cultures were incubated 4 days and the cells were fixed with 4% paraformaldehyde for 10 min at room temperature then washed with PBS. Cells were then incubated with ammonium chloride at 20 mM 5 min at room temperature and washed 5 times with PBS. Blocking and hybridization were realized in PBS containing 10% FCS and 0.1% Triton X100. Anti-Nestin and anti-H3Phospho serine 10 antibodies were incubated 2 hours at room temperature then washed with PBS. Fluorescence coupled secondary antibodies and Hoechst 33342 nuclei counterstaining reagent were hybridized one hour at room temperature. Cells were mounted with anti-fading agent then imaged, counted and quantified using fluorescent microscopy (TiE Nikon) and NiS software (Nikon).
(§2) It was further investigated the effects of selected compounds on GSC clonal expansion as well as their capacity of mitosis (FIGS. 2B and C). Compounds 9a-b and 18a treatment altered GSC clonal expansion and mitosis. The most efficient inhibition of clonal expansion was provided by Compound 9a treatment (IC50<10 uM) while both Compounds 9a-b were the most efficient for mitosis inhibition (IC50<10 uM) (FIGS. 2C and D).

The test system of assay [3] is GB5 cells. Briefly: Clonal expansion (clonal proliferation) of GB5. As for the experimental part: as §1
Clonal proliferation: TG6 and GB5 were seeded at 10 cells/well in 96 wells plate in NS34+ medium alone or containing growing concentration of Compounds 9a-b and 18a-b. Immediately after seeding, the real number of cells in the well was determined by direct count. Two and three weeks later, the resulting number of spheroids in each well was evaluated by a direct count. The % of clonal efficiency was calculated in dividing […].
as §2

Structures are written as SMILES.

A word on the IC50: it is the midpoint of a concentration-inhibition curve. With `NCCCCNCCCNC(=O)c1csc(-c2csc(CCNC(=O)CCc3cn(CC4OC(OC5C(O)C(N)CC(N)C5OC5OC(CN)C(O)C(O)C5N)C(O)C4OC4OC(CN)C(O)C(O)C4N)nn3)n2)n1` (stereo not drawn) [Compound 9a, N-(3-((4-Aminobutyl)amino)propyl)-2′-(2-(3-(1-methyl-1H-1,2,3-triazol-4-yl)propanamido)ethyl)-[2,4′-bithiazole]-4-carboxamide-neomycin], the “increase of TMZ sensitivity” value in the assay with GB5 cells [1] (GB5, TMZ 400 uM plus compound at 10 uM) is listed as 2 fold. Further, the “increase of TMZ sensitivity, maximal effect” value with GB5 cells [1] (GB5, TMZ 400 uM plus compound at 50 uM) is 2.9 fold. Besides, the GSC mitosis result in the assay on GB5 cells [2] is “altered”. Also, the IC50 with GB5 cells [2] (Homo sapiens, read-out: mitosis inhibition IC50) is less than 10 µM; in the assay on GB5 cells [3] (Homo sapiens, GB5, read-out: inhibition of clonal expansion IC50) it was less than 10 µM. Further, the GSC clonal expansion result in the assay on GB5 cells [3] (GB5, spheroids counted after two and three weeks) is “altered”.
